Experimental data published in patent US20260159536A1, “AKR1C3-ACTIVATED DNA ALKYLATING AGENT, AND MEDICAL APPLICATION THEREOF” (ASCENTAWITS PHARMACEUTICALS, LTD., priority 2021, published 2026).

Tests used:
Design in all cases: species or system BALB/c nude mice
[1] = tested on: HuPrime model LI6643 human liver cancer; test: In vivo pharmacodynamics, liver cancer LI6643 PDX model (Compound A, Sorafenib; section 4.8); conditions: for Tumor volume: 20-30 mg/kg p.o.
Experimental: Experiment Instruction: BALB/c nude mice were subcutaneously inoculated with HuPrime® model LI6643 tumor blocks to establish a subcutaneous transplantation tumor model of human liver cancer. […] The efficacy was evaluated according to the relative tumor inhibition rate TGI (%), and the safety was evaluated according to the change in body weight and the death of the animals.

[2] = tested on: HuPrime model LI6643 human liver cancer; test: In vivo pharmacodynamics, liver cancer LI6643 PDX model (Compound A, Sorafenib, AST-3424; section 4.7); conditions: for Tumor volume: 30 mg/kg p.o.
Experimental: Experiment Instruction: BALB/c nude mice were subcutaneously inoculated with HuPrime® model LI6643 tumor blocks to establish a subcutaneous grafted tumor model of human liver cancer. […] The efficacy was evaluated according to the relative tumor inhibition rate TGI (%), and the safety was evaluated according to the change in body weight and the death of the animals.

[3] = tested on: human liver cancer LI6652; test: In vivo pharmacodynamics, liver cancer LI6652 subcutaneous xenograft PDX model; conditions: for Tumor volume: 30 mg/kg p.o.
Experimental: The pharmacodynamic analysis of each group in liver cancer LI6652 model was performed on Day 31 after administration, and the results were shown in Table 12.

[4] = tested on: HuPrime model LI6664 human liver cancer; test: In vivo pharmacodynamics, liver cancer LI6664 PDX model; conditions: for Size of tumor volume: Group2, Sorafenib 30 mg/kg
Experimental: Experiment Instruction: BALB/c nude mice were subcutaneously inoculated with HuPrime® model LI6664 tumor blocks to establish a subcutaneous transplantation tumor model of human liver cancer. […] Among them, 7.5% anhydrous ethanol+7.5% polyoxyethylene (35) castor oil+85% glucose injection D5W (pH 7.4) vehicle control group was administered by tail vein once a week for 3 consecutive weeks; test drug AST-3424 0.3 mg/kg and 1 mg/kg groups were administered by tail vein injection once a day for 5 consecutive days, followed by 2 days off, followed by 2 weeks off, and then continuously administered for 5 consecutive days; the test drug AST-3424 1.25 mg/kg group was administered by tail vein injection once a week for 2 consecutive weeks, followed by one week off, and then continuously administered for 2 consecutive weeks, Compound A 0.5 mg/kg, 1.5 mg/kg, and 4.5 mg/kg groups were administered by tail vein injection once a week for three consecutive weeks, followed by 1 week off, and then administered for three consecutive weeks. […] The efficacy was evaluated according to the relative tumor inhibition rate TGI (%), and the safety was evaluated according to the change in body weight and the death of the animals.

[5] = tested on: human liver cancer LI6652; test: In vivo pharmacodynamics, liver cancer LI6652 subcutaneous xenograft PDX model; conditions: 30 mg/kg p.o. QDx21; Day 28
[6] = tested on: human liver cancer HepG2 cells; test: In vivo pharmacodynamics, liver cancer HepG2 CDX model
Experimental: Experiment Instruction: BALB/c nude mice were subcutaneously inoculated with human liver cancer HepG2 cells to establish a subcutaneous transplantation tumor model of human liver cancer. […] The efficacy was evaluated according to the relative tumor inhibition rate TGI (%), and the safety was evaluated according to the change in body weight and the death of the animals.

[7] = tested on: HuPrime model LI6280 human liver cancer; test: In vivo pharmacodynamics, liver cancer LI6280 PDX model; conditions: for Tumor volume: 30 mg/kg p.o.
Experimental: Experiment Instruction: BALB/c nude mice were subcutaneously inoculated with HuPrime® model LI6280 tumour blocks to establish a subcutaneous transplantation tumour model of human liver cancer. […] The efficacy was evaluated according to the relative tumor inhibition rate TGI (%), and the safety was evaluated according to the change in body weight and the death of the animals.

[8] = tested on: HuPrime model LI1005 human liver cancer; test: In vivo pharmacodynamics, liver cancer LI1005 PDX model; conditions: for Tumor volume: 30 mg/kg p.o.
[9] = 20-30 mg/kg p.o. QD (30 mg/kg day0-day11, 20 mg/kg day 12-day20), Day 35
[10] = 30 mg/kg, QDx21 Days, p.o., Day 53

SMILES: CNC(=O)c1cc(Oc2ccc(NC(=O)Nc3ccc(Cl)c(C(F)(F)F)c3)cc2)ccn1 [Sorafenib, reference compound]
- T/C (%) [1, 9]: 21.81%
- Tumor volume (x ± S) [1, 9]: 392.20 ± 64.05
- Tumor volume ([1]; Day 0): 126.16 mm^3
- Tumor volume ([1]; Day 4): 163.51 mm^3
- Tumor volume ([1]; Day 7): 205.85 mm^3
- Tumor volume ([1]; Day 11): 235.50 mm^3
- Tumor volume ([1]; Day 14): 279.42 mm^3
- Tumor volume ([1]; Day 18): 291.41 mm^3
- Tumor volume ([1]; Day 21): 287.76 mm^3
- Tumor volume ([1]; Day 25): 326.85 mm^3
- Tumor volume ([1]; Day 28): 346.56 mm^3
- Tumor volume ([1]; Day 32): 385.09 mm^3
- Tumor volume ([1]; Day 35): 392.20 mm^3
- Tumor volume ([1]; Day 39): 431.87 mm^3
- Tumor volume ([1]; Day 42): 451.48 mm^3
- Tumor volume ([1]; Day 46): 521.44 mm^3
- Tumor volume ([1]; Day 49): 585.72 mm^3
- Tumor volume ([1]; Day 53): 622.46 mm^3
- T/C (%) ([2]; 30 mg/kg p.o. QDx21, Day 21): 37.88%
- TGI (%) ([2]; 30 mg/kg p.o. QDx21, Day 21): 62.12%
- Tumor volume (x ± S) ([2]; 30 mg/kg p.o. QDx21, Day 21, in mm³): 214.75 ± 31.53
- Tumor volume ([2]; Day 0): 124.67 mm^3
- Tumor volume ([2]; Day 3): 170.03 mm^3
- Tumor volume ([2]; Day 7): 185.13 mm^3
- Tumor volume ([2]; Day 10): 193.95 mm^3
- Tumor volume ([2]; Day 14): 189.87 mm^3
- Tumor volume ([2]; Day 17): 171.25 mm^3
- Tumor volume ([2]; Day 21): 214.75 mm^3
- Tumor volume ([2]; Day 24): 238.48 mm^3
- Tumor volume ([2]; Day 28): 309.08 mm^3
- T/C (%) ([3]; 30 mg/kg p.o. QDx21, Day 28): 17.04%
- TGI (%) ([3]; 30 mg/kg p.o. QDx21, Day 28): 82.96%
- Tumor volume ([3]; Day 0): 125.84 mm^3
- Tumor volume ([3]; Day 3): 146.95 mm^3
- Tumor volume ([3]; Day 7): 196.51 mm^3
- Tumor volume ([3]; Day 10): 212.41 mm^3
- Tumor volume ([3]; Day 14): 217.19 mm^3
- Tumor volume ([3]; Day 17): 191.72 mm^3
- Tumor volume ([3]; Day 21): 178.69 mm^3
- Tumor volume ([3]; Day 24): 209.42 mm^3
- Tumor volume ([3]; Day 28): 315.93 mm^3
- Tumor volume ([3]; Day 31): 441.67 mm^3
- Size of tumor volume ([4]; Day 0): 107.93 mm^3
- Size of tumor volume ([4]; Day 4): 170.15 mm^3
- Size of tumor volume ([4]; Day 7): 197.93 mm^3
- Size of tumor volume ([4]; Day 11): 218.34 mm^3
- Size of tumor volume ([4]; Day 14): 321.83 mm^3
- Size of tumor volume ([4]; Day 18): 391.52 mm^3
- Size of tumor volume ([4]; Day 21): 481.85 mm^3
- Size of tumor volume ([4]; Day 25): 730.68 mm^3
- Size of tumor volume ([4]; Day 28): 1003.42 mm^3
- Size of tumor volume ([4]; Day 32): 1333.07 mm^3
- Size of tumor volume ([4]; Day 35): 1595.00 mm^3
- Size of tumor volume ([4]; Day 39): 2102.94 mm^3
- Size of tumor volume ([4]; Day 42): 2729.04 mm^3
- Size of tumor volume ([4]; Day 46): 2892.15 mm^3
- Size of tumor volume ([4]; Day 49): 2600.00 mm^3
- T/C (%) ([4]; Sorafenib 30 mg/kg, Day 28): 71.01%
- TGI (%) ([4]; Sorafenib 30 mg/kg, Day 28): 28.99%
- Tumor volume (x ± S) ([4]; Sorafenib 30 mg/kg, Day 28, mean ± standard error, in mm³ (unit assumed)): 1003.42 ± 128.88
- weight loss ([4]; treatment period, tested doses): weight loss in individual mice
- Tumor volume (x ± S) [5]: 315.93 ± 81.35
- weight loss ([6]; 30 mg/kg p.o.): caused significant weight loss
- Tumor volume ([6]; 30 mg/kg p.o., Day 19): 189.76 mm^3
- Tumor volume ([6]; 30 mg/kg p.o., Day 22): 291.62 mm^3
- Tumor volume ([6]; 30 mg/kg p.o., Day 24): 311.64 mm^3
- Tumor volume ([6]; 30 mg/kg p.o., Day 27): 340.46 mm^3
- Tumor volume ([6]; 30 mg/kg p.o., Day 31): 398.84 mm^3
- Tumor volume ([6]; 30 mg/kg p.o., Day 36): 491.06 mm^3
- Tumor volume ([6]; 30 mg/kg p.o., Day 39): 509.41 mm^3
- Tumor volume ([6]; 30 mg/kg p.o., Day 42): 657.51 mm^3
- Tumor volume ([6]; 30 mg/kg p.o., Day 46): 816.63 mm^3
- Tumor volume ([6]; 30 mg/kg p.o., Day 49): 1012.20 mm^3
- Tumor volume ([6]; 30 mg/kg p.o., Day 53): 1484.78 mm^3
- T/C (%) [6, 10]: 65.95%
- TGI (%) [6, 10]: 34.05%
- Tumor volume (x ± S) ([6]; 30 mg/kg, QDx21 Days, p.o., Day 53, in mm³ (unit assumed)): 1484.78 ± 304.89
- T/C (%) ([7]; 30 mg/kg p.o. QDx21, Day 17): 49.65%
- TGI (%) ([7]; 30 mg/kg p.o. QDx21, Day 17): 50.35%
- Tumor volume (x ± S) ([7]; 30 mg/kg p.o. QDx21, Day 17, in mm³ (unit assumed)): 1076.45 ± 230.21
- Tumor volume ([7]; Day 0): 103.93 mm^3
- Tumor volume ([7]; Day 3): 168.82 mm^3
- Tumor volume ([7]; Day 7): 269.83 mm^3
- Tumor volume ([7]; Day 10): 439.29 mm^3
- Tumor volume ([7]; Day 14): 731.99 mm^3
- Tumor volume ([7]; Day 17): 1076.45 mm^3
- Tumor volume ([7]; Day 21): 1241.19 mm^3
- Tumor volume ([7]; Day 24): 1504.89 mm^3
- Tumor volume ([7]; Day 28): 2218.52 mm^3
- Tumor volume ([7]; Day 31): 2313.01 mm^3
- T/C (%) ([8]; 30 mg/kg p.o. QDx21, Day 35): 28.26%
- TGI (%) ([8]; 30 mg/kg p.o. QDx21, Day 35): 71.74%
- Tumor volume (x ± S) ([8]; 30 mg/kg p.o. QDx21, Day 35, in mm³ (unit assumed)): 294.09 ± 60.93
- Tumor volume ([8]; Day 0): 102.89 mm^3
- Tumor volume ([8]; Day 3): 121.64 mm^3
- Tumor volume ([8]; Day 7): 136.21 mm^3
- Tumor volume ([8]; Day 10): 136.21 mm^3
- Tumor volume ([8]; Day 14): 136.89 mm^3
- Tumor volume ([8]; Day 17): 140.09 mm^3
- Tumor volume ([8]; Day 21): 142.56 mm^3
- Tumor volume ([8]; Day 24): 161.17 mm^3
- Tumor volume ([8]; Day 28): 200.97 mm^3
- Tumor volume ([8]; Day 31): 227.65 mm^3
- Tumor volume ([8]; Day 35): 294.09 mm^3
